Measurements taken from patent US20260132172A1, “IN VITRO BIOSYNTHESIS OF DIVERSE PYRIDINE-BASED MACROCYCLIC PEPTIDES” (The Brd. of Trustees of the Univ. of Illinois, priority 2022, published 2026).

What was measured:
MroB/C = MroB/C dehydration (Dha formation) of MroA precursor peptide variants, MALDI-TOF-MS / LC-MS/MS; assay type: biochemical, Micromonospora rosaria; details: for dehydration by MroBC (site and extent): MroBC assays followed by LC-MS/MS analysis, result in words; for Dha formation: MroA2 multi-site variants, in vitro translated, MALDI-TOF-MS
Description: In a 0.65 mL protein low-binding Eppendorf tube placed on ice. 0.75 μL of purified mroA variant template DNA was mixed with 0.75 μL of Solution B and 1 μL of Solution A of PURExpress In vitro Protein Synthesis Kit (E6800L) purchased from NEB (total volume of reaction is 2.5 μL). The translation reactions were performed at 37° C. for 1 h on an aluminum block.
For a full MroBCD substrate scope investigation, a total translation volume for each variant of 7.5 μL was performed. 1.5 μL of 90 mM iodoacetamide (IAA) was added to quench dithiothreitol (DTT) in the translation reaction mixture, a thiol-based nucleophile that can react with electrophilic dehydroalanines generated from MroBC-catalyzed dehydration assays. The translation product was split into two parts with these corresponding volumes: 3 μL and 6 μL. In the 6 μL part. 10.2 μL of the enzyme mix containing enzymes and cofactors was added along with 1.8 μL 90 mM ATP (pH 7.5), which was used to initiate the reaction. The enzyme mix was made by adding these components in the following order: HEPES pH 7.5, MgCl2, glutamate, T. bispora tRNA^Glu (CUC), thermostable inorganic pyrophosphatase (TIPP), TEV (L56V/S135G/S219V) (w/w ratio with a total amount of MBP-tagged protein=1:10), MBP-MroB, MBP-MroC, and T. bispora GluRS. The enzyme mix was incubated 25 min at room temperature before adding to the translation product to facilitate in situ TEV-catalyzed cleavage of MBP from MBP-MroB and MBP-MroC. The enzymatic reaction proceeded for 1 h at room temperature. Overall, the concentration of components in the 18 μL reaction mix is as follows: 50 mM HEPES pH 7.5, 5 mM MgCl2. L-glutamate 1 mM, 3 μM T. bispora tRNA^Glu, 1 μM T. bispora GluRS, 2 μM MBP-MroB, 2 μM MBP-MroC, […], 0.027 U/μL TIPP, and 5 mM IAA. In addition, the 3 μL part was incubated with the same buffer lacking enzymes and tRNA as a translation control.
The reactions were performed similarly as described above, with 10 μM substrate concentration and without IAA. The total volume of each reaction is 100 μL.
Enzymatic assays were desalted using solid-phase extraction prior to LC-ESI-MS/MS analysis. Specifically, except for the thiazol(in)es-containing pyritide (which utilize 8 mg Pierce C18 Spin Column), the samples were applied to Toptip C18 (10-200 μL, Glygen Corp) wetted with 50 μL of 80% acetonitrile (0.1% formic acid) and equilibrate with 150 μL of 0.1% formic acid following the manufacturer instructions. The C18 columns (tips) are then washed with 150 μL of 0.1% formic acid and eluted using 100 μL 80% acetonitrile (0.1% formic acid). The samples were then dried utilizing lyophilization and redissolved in 25% acetonitrile (80 μL for enzymatic assays of in vitro-translated substrates and 200 μL for enzymatic assays of purified substrates). Then 20 μL of each sample was injected into an Agilent AdvanceBio Peptide Plus column (2.1×150 mm, 2.7 μm) equipped with an Agilent 6545B Q-TOF interfaced with an Agilent 1290 Infinity II LC system. Mobile phase solvents were composed of H2O, 0.1% formic acid (Solvent A), and acetonitrile 0.1% formic acid (Solvent B). The column compartment was maintained at 35° C. during all experiments. The column was equilibrated with 5 column volumes of starting mobile phase (95% A and 5% B) between injections. The gradient of all LC runs was as follows: 0-2 min: 95% A 5% B, 2-3 min: 70% A 30% B, 3-18 min: 20% A 80% B, 18-20 min: 5% A 95% B. The samples were run to waste for the first 3 min before applying to the mass spectrometer. Mass range was set from 100 to 1700 m/z (except for 412MroA1 W7G: 100-3000 m/z). MS parameters were as follows: gas, 320° C. at 8 L/min: nebulizer, 35 psig: nozzle voltage, 1000 V: sheath gas, 350° C. at 11 L/min: capillary, 3500 V: fragmentor, 125 V: skimmer, 65 V: MS scan rate (10) spectra/s): MS-MS scan rate (5 spectra/s); and isolation width (MS/MS), 1.3 m z. […]

MroD = MroD [4+2] macrocyclization of didehydrated MroA2 variants, MALDI-TOF-MS; assay type: biochemical, Micromonospora rosaria; design: key: +++ indicates enzyme activity roughly equal to wild-type MroA2; ++ indicates modestly reduced enzyme activity; + indicates severely reduced enzyme activity; − indicates no detectable enzyme activity (no macrocycles observed); details: MroA2 multi-site variants; qualitatively estimated from leader peptide vs remaining didehydrated intermediate
Description: After incubation, the enzyme reaction (18 μL) was split into two equal parts. One part was treated with MBP-MroD such that the final concentration of MBP-MroD is 3 μM, and the other part was added the same volume but with buffer lacking MBP-MroD (50 mM HEPES, 300 mM NaCl, 2.5% glycerol, 0.5 mM TCEP). The reaction further proceeded for 1.5 h at room temperature. All reaction mixture was then desalted with solid-phase extraction using Ziptip with 0.6 μL C18 resin (EMD Millipore) and crystallized on an MTP384 steel target plate using either saturated sinapic acid or 50 mg/mL Super DHB [dissolved in 60% acetonitrile and 0.1% trifluoroacetic acid (TFA)] as the matrix. The crystallized spots were then analyzed using MALDI-TOF-MS (Bruker Ultraflex). The external standard for MALDI-TOF-MS analysis is ProteoMass Peptide and Protein MALDI-MS Calibration Kit (Sigma).

Substance: MroA2-S1G/W8G: MroA2 variant (MRRRGSMDNVVTEAAEFADLDIVDLDLAVDEELAALSVGGLGNTEVGAGGFFGRSGLI)
- dehydration by MroBC (site and extent) (MroB/C): inefficiently dehydrated at Ser7

Substance: MroA2-S7G: MroA2 variant (MRRRGSMDNVVTEAAEFADLDIVDLDLAVDEELAALSVGGLGNTEVGASGFFGRGWLI)
- dehydration by MroBC (site and extent) (MroB/C): went to completion

Substance: MroA2-SIG: MroA2 variant (MRRRGSMDNVVTEAAEFADLDIVDLDLAVDEELAALSVGGLGNTEVGAGGFFGRSWLI)
- dehydration by MroBC (site and extent) (MroB/C): went to completion

Substance: S7G/110G: MroA2 variant (MRRRGSMDNVVTEAAEFADLDIVDLDLAVDEELAALSVGGLGNTEVGASGFFGRGWLG)
- dehydration by MroBC (site and extent) (MroB/C): completely dehydrated at Ser1

Substance: S7G/W8G: MroA2 variant (MRRRGSMDNVVTEAAEFADLDIVDLDLAVDEELAALSVGGLGNTEVGASGFFGRGGLI)
- dehydration by MroBC (site and extent) (MroB/C): completely dehydrated at Ser1

Substance: SGAGLNRSWLI [Number 17]
- Dha formation (MroB/C): 2 Dha
- Relative MroD conversion (MroD): +++

Substance: SGAQQHSWLI [Number 13]
- Dha formation (MroB/C): 2 Dha
- Relative MroD conversion (MroD): +++

Substance: SGAVRFNGSWLI [Number 36]
- Dha formation (MroB/C): 2 Dha
- Relative MroD conversion (MroD): +

Substance: SGAWRSWLI [Number 6]
- Dha formation (MroB/C): 2 Dha
- Relative MroD conversion (MroD): +++

Substance: SGDAMRWASWLI [Number 53]
- Dha formation (MroB/C): 2 Dha

Substance: SGDDRDGGSWLI [Number 27]
- Dha formation (MroB/C): Mix of 1, 2
- Relative MroD conversion (MroD): +

Substance: SGDGWRSWLI [Number 18]
- Dha formation (MroB/C): 2 Dha
- Relative MroD conversion (MroD): +++

Substance: SGEMHQHSWLI [Number 41]
- Dha formation (MroB/C): Mix of 1, 2
- Relative MroD conversion (MroD): +

Substance: SGERGMGKSWLI [Number 34]
- Dha formation (MroB/C): 2 Dha
- Relative MroD conversion (MroD): +++

Substance: SGFDRAGHSWLI [Number 46]
- Dha formation (MroB/C): 2 Dha
- Relative MroD conversion (MroD): +

Substance: SGFIRNASWLI [Number 31]
- Dha formation (MroB/C): 2 Dha
- Relative MroD conversion (MroD): ++

Substance: SGGRENSWLI [Number 11]
- Dha formation (MroB/C): 2 Dha
- Relative MroD conversion (MroD): ++

Substance: SGGWRVAHSWLI [Number 45]
- Dha formation (MroB/C): 2 Dha
- Relative MroD conversion (MroD): +

Substance: SGGYRPRSWLI [Number 38-H7R]
- Dha formation (MroB/C): 2 Dha
- Relative MroD conversion (MroD): +++

Substance: SGHAAHSWLI [Number 7]
- Dha formation (MroB/C): 2 Dha
- Relative MroD conversion (MroD): +++

Substance: SGHDNQARSWLI [Number 49]
- Dha formation (MroB/C): 2 Dha
- Relative MroD conversion (MroD): +++

Substance: SGHQFKSWLI [Number 22]
- Dha formation (MroB/C): 2 Dha
- Relative MroD conversion (MroD): +++

Substance: SGHWANSWLI [Number 15]
- Dha formation (MroB/C): 2 Dha
- Relative MroD conversion (MroD): +++

Substance: SGIKNDASWLI [Number 23]
- Dha formation (MroB/C): 2 Dha
- Relative MroD conversion (MroD): +++

Substance: SGIYHNSWLI [Number 20]
- Dha formation (MroB/C): 2 Dha
- Relative MroD conversion (MroD): +++

Substance: SGKALERSWLI [Number 29-F7R]
- Dha formation (MroB/C): Mix of 1,2
- Relative MroD conversion (MroD): ++

Substance: SGKAPGRSWLI [Number 16]
- Dha formation (MroB/C): 2 Dha
- Relative MroD conversion (MroD): +++

Substance: SGKGKQASWLI [Number 19]
- Dha formation (MroB/C): 2 Dha

Substance: SGKLGFSWLI [Number 10]
- Dha formation (MroB/C): 2 Dha
- Relative MroD conversion (MroD): +

Substance: SGLGHSWLI [Number 1]
- Dha formation (MroB/C): 2 Dha
- Relative MroD conversion (MroD): +

Substance: SGLKFYHSWLI [Number 44]
- Dha formation (MroB/C): 2 Dha
- Relative MroD conversion (MroD): +++

Substance: SGMARYSWLI [Number 26]
- Dha formation (MroB/C): 2 Dha
- Relative MroD conversion (MroD): +

Substance: SGMPRGSWLI [Number 8]
- Dha formation (MroB/C): 2 Dha
- Relative MroD conversion (MroD): +++

Substance: SGNAWIKSWLI [Number 32]
- Dha formation (MroB/C): 2 Dha
- Relative MroD conversion (MroD): +++

Substance: SGNERGSWLI [Number 9]
- Dha formation (MroB/C): 2 Dha
- Relative MroD conversion (MroD): +++

Substance: SGNMHPGKSWLI [Number 40]
- Dha formation (MroB/C): 2 Dha
- Relative MroD conversion (MroD): ++

Substance: SGPKGSWLI [Number 5]
- Dha formation (MroB/C): 2 Dha
- Relative MroD conversion (MroD): +++

Substance: SGPKRWGHSWLI [Number 51]
- Dha formation (MroB/C): 2 Dha
- Relative MroD conversion (MroD): +

Substance: SGPMHYSWLI [Number 21]
- Dha formation (MroB/C): 2 Dha
- Relative MroD conversion (MroD): +++

Substance: SGPRANYSWLI [Number 30]
- Dha formation (MroB/C): 2 Dha
- Relative MroD conversion (MroD): ++

Substance: SGQDVANRSWLI [Number 43]
- Dha formation (MroB/C): 2 Dha
- Relative MroD conversion (MroD): +++

Substance: SGQGRNRSWLI [Number 24-V7R]
- Dha formation (MroB/C): 2 Dha
- Relative MroD conversion (MroD): +++

Substance: SGQGRNVSWLI [Number 24]
- Dha formation (MroB/C): 2 Dha
- Relative MroD conversion (MroD): +

Substance: SGQPQRLGSWLI [Number 42]
- Dha formation (MroB/C): 2 Dha
- Relative MroD conversion (MroD): +++

Substance: SGQYKFRSWLI [Number 48]
- Dha formation (MroB/C): 2 Dha
- Relative MroD conversion (MroD): +++

Substance: SGREFANSWLI [Number 35]
- Dha formation (MroB/C): 2 Dha
- Relative MroD conversion (MroD): +

Substance: SGREFARSWLI [Number 35-N7R]
- Dha formation (MroB/C): 2 Dha
- Relative MroD conversion (MroD): +++

Substance: SGRGYALSWLI [Number 25]
- Dha formation (MroB/C): 2 Dha
- Relative MroD conversion (MroD): ++

Substance: SGRVALEASWLI [Number 37]
- Dha formation (MroB/C): 2 Dha
- Relative MroD conversion (MroD): +

Substance: SGRYAGRSWLI [Number 39-W7R]
- Dha formation (MroB/C): 2 Dha
- Relative MroD conversion (MroD): +++

Substance: SGRYHSWLI [Number 12]
- Dha formation (MroB/C): 2 Dha
- Relative MroD conversion (MroD): +++

Substance: SGVKAWSWLI [Number 14]
- Dha formation (MroB/C): 2 Dha
- Relative MroD conversion (MroD): +++

Substance: SGVKFSWLI [Number 3]
- Dha formation (MroB/C): 2 Dha
- Relative MroD conversion (MroD): +

Substance: SGYANRAGSWLI [Number 33]
- Dha formation (MroB/C): 2 Dha
- Relative MroD conversion (MroD): +++

Substance: SGYDRQRSWLI [Number 56-Y7R]
- Dha formation (MroB/C): 2 Dha
- Relative MroD conversion (MroD): +++

Substance: SGYRRRAGSWLI [Number 50]
- Dha formation (MroB/C): 2 Dha
- Relative MroD conversion (MroD): +++
